pIC50: −log10 of the molar value. Activity calls are given as the source filed them. The rule behind the calls is not given here.
How the values were obtained:
A549 [1] = experiment: Induction of autophagy in human A549 cells assessed as nuclear and acidic compartment morphology at 10 to 80 uM after 24 hrs; assay type: functional, cell-based
NCI-H460 [2] = experiment: Induction of autophagy in human H460 cells assessed as nuclear and acidic compartment morphology at 80 uM after 24 hrs; assay type: functional, cell-based
NCI-H460 [3] = experiment: Induction of necrosis in human H460 cells assessed as LDH release at 80 uM after 48 hrs; assay type: functional, cell-based
A549 [4] = experiment: Induction of autophagy in human A549 cells assessed as nuclear and acidic compartment morphology at 80 uM after 48 hrs; assay type: functional, cell-based
A549 [5] = experiment: Induction of apoptosis in human A549 cells assessed as nuclear and acidic compartment morphology at 80 uM; assay type: functional, cell-based
NCI-H460 [6] = experiment: Induction of apoptosis in human H460 cells assessed as nuclear and acidic compartment morphology at 80 uM; assay type: functional, cell-based
NCI-H460 [7] = experiment: Induction of necrosis in human H460 cells assessed as LDH release at 80 uM after 24 hrs; assay type: functional, cell-based
NCI-H460 [8] = experiment: Induction of autophagy in human H460 cells assessed as nuclear and acidic compartment morphology at 80 uM after 48 hrs; assay type: functional, cell-based
A549 [9] = experiment: Induction of necrosis in human A549 cells assessed as LDH release at 80 uM after 24 hrs; assay type: functional, cell-based
A549 [10] = experiment: Growth inhibition of human A549 cells after 96 hrs by MTT assay; assay type: functional, cell-based; details: A549, 96 h
A549 [11] = experiment: Growth inhibition of human A549 cells after 48 hrs by MTT assay; assay type: functional, cell-based; details: A549, 48 h
A549 [12] = experiment: Induction of necrosis in human A549 cells assessed as LDH release at 80 uM after 48 hrs; assay type: functional, cell-based
HUVEC [13] = experiment: Antiproliferative activity against HUVEC assessed as cell viability after 24 hrs by MTT assay; assay type: cell-based; details: human
A549 [14] = experiment: Antiproliferative activity against human A549 cells assessed as cell viability at 40 uM after 24 hrs by MTT assay; assay type: functional; details: A549, 24 h, read-out: Activity
A549 [15] = experiment: Antiproliferative activity against human A549 cells assessed as cell viability at 40 uM after 48 hrs by MTT assay relative to control; assay type: functional; details: A549, 48 h, read-out: Activity
A549 [16] = experiment: Antiproliferative activity against human A549 cells assessed as cell viability at 80 uM after 48 hrs by MTT assay; assay type: functional; details: A549, 48 h, read-out: Activity
A549 [17] = experiment: Antiproliferative activity against human A549 cells assessed as cell viability at 80 uM after 96 hrs by MTT assay; assay type: functional; details: A549, 96 h, read-out: Activity
HUVEC [18] = experiment: Antiproliferative activity against HUVEC assessed as cell viability after 48 hrs by MTT assay; assay type: cell-based; details: human
A549 [19] = experiment: Effect on morphological changes in human A549 cells at 10 to 80 uM after 48 hrs; assay type: functional, cell-based
A549 [20] = experiment: Effect on morphological changes in human A549 cells at 10 to 80 uM after 24 hrs; assay type: functional, cell-based
HUVEC [21] = experiment: Induction of HUVEC growth at 10 uM after 24 hrs by MTT assay; assay type: functional, cell-based; details: Homo sapiens

SMILES	pIC50 (A549 [10])	pIC50 (A549 [11])	Activity (A549 [1])	Activity (NCI-H460 [2])	Activity (NCI-H460 [3])	Activity (A549 [4])	Activity (A549 [5])	Activity (NCI-H460 [6])	Activity (NCI-H460 [7])	Activity (NCI-H460 [8])	Activity (A549 [9])	Activity (A549 [12])	viability at 40 µM (A549 [14]) [%]	viability at 40 µM (A549 [15]) [%]	viability at 80 µM (A549 [16]) [%]	viability at 80 µM (A549 [17]) [%]	further results
NNC(=O)c1cc(-c2ccccc2)nn1CC(O)COc1ccc([N+](=O)[O-])cc1 (centres undefined)	4.35	4.14	Active	Active	inactive	Active	inactive	inactive	inactive	Active	inactive	inactive					
COc1ccc(-c2cc(C(=O)NN)n(CC(O)COc3ccc(Cl)cc3)n2)cc1 (centres undefined)	4.46	4.41	Active	Active	inactive	Active	inactive	inactive	inactive	Active	inactive	inactive	62	40			
NNC(=O)c1cc(-c2ccc(Cl)cc2)nn1CC(O)COc1ccc([N+](=O)[O-])cc1 (centres undefined)	4.43	4.41	Active	Active	inactive	Active	inactive	inactive	inactive	Active	inactive	inactive	72	56	29	6	
COc1ccccc1OCC(O)Cn1nc(-c2ccccc2)cc1C(=O)NN (centres undefined)	4.31	4.14	Active	Active	inactive	Active	inactive	inactive	inactive	Active	inactive	inactive					

Continued, in another order:

pIC50 (A549 [10])	pIC50 (A549 [11])	SMILES	Activity (A549 [1])	Activity (NCI-H460 [2])	Activity (NCI-H460 [3])	Activity (A549 [4])	Activity (A549 [5])	Activity (NCI-H460 [6])	Activity (NCI-H460 [7])	Activity (NCI-H460 [8])	Activity (A549 [9])	Activity (A549 [12])	viability at 40 µM (A549 [14]) [%]	viability at 40 µM (A549 [15]) [%]	viability at 80 µM (A549 [16]) [%]	viability at 80 µM (A549 [17]) [%]	further results
4.52	4.32	NNC(=O)c1cc(-c2ccccc2)nn1CC(O)COc1ccc(Cl)cc1 (centres undefined)	Active	Active	inactive	Active	inactive	inactive	inactive	Active	inactive	inactive	72	56	29	6	Activity (HUVEC [13]): Not Active; Activity (HUVEC [18]): Not Active; Activity (A549 [19]): Active; Activity (A549 [20]): Active
4.57	4.49	NNC(=O)c1cc(-c2ccc(Cl)cc2)nn1CC(O)COc1ccc(Cl)cc1 (centres undefined)	Active	Active	inactive	Active	inactive	inactive	inactive	Active	inactive	inactive	72	56	29	6	Activity (HUVEC [13]): Not Active; Activity (HUVEC [21]): Active; Activity (HUVEC [18]): Not Active; Activity (A549 [19]): Active; Activity (A549 [20]): Active
4.29	4.15	COc1ccc(-c2cc(C(=O)NN)n(CC(O)COc3ccccc3OC)n2)cc1 (centres undefined)	Active	Active	inactive	Active	inactive	inactive	inactive	Active	inactive	inactive					
4.40	4.13	COc1ccccc1OCC(O)Cn1nc(-c2ccc(Cl)cc2)cc1C(=O)NN (centres undefined)	Active	Active	inactive	Active	inactive	inactive	inactive	Active	inactive	inactive					

From ChEMBL document CHEMBL1155123, “Synthesis and discovery of autophagy inducers for A549 and H460 lung cancer cells, novel 1-(2'-hydroxy-3'-aroxypropyl)-3-aryl-1H-pyrazole-5-carbohydrazide derivatives” (Bioorg Med Chem Lett, 2008)
